According to patent publication US10487071B2, “Bis-triazole compounds with anti-biofilm and anti-corrosion properties” (Université de Toulon, priority 2015, dated 2019):
Read-outs that look alike come from different tables or passages of the source.

Legend:
[1] = test system: Polaribacter sp. (TC5); assay: Toxicity test, strain TC5; assay type: cell-based; settings: for CC50: read-out: LC50 (necessary concentration to kill 50% of the bacteria)
Source text: Polaribacter sp. (TC5) was isolated in June 2010 in the Military Harbor of Toulon (Mediterranean Sea, France) as described in F. Brian-Jaisson, A. Ortalo-Magné, L. Guentas-Dombrowsky, F. Armougom, Y. Blache, M. Molmeret, Microb. Ecol., 2014, 68, 94-110.

[2] = test system: Polaribacter sp. (TC5); assay: Anti-adhesion test, strain TC5; assay type: cell-based; settings: for activity at 200 µM: 15 h; for EC50: read-out: EC50 (effective concentration to inhibit 50% of the adhesion)
[3] = test system: Shewanella sp. (TC11); assay: Toxicity test, strain TC11; assay type: cell-based
Source text: Shewanella sp. (TC11) was isolated in June 2010 in the Military Harbor of Toulon (Mediterranean Sea, France) as described in F. Brian-Jaisson, A. Ortalo-Magné, L. Guentas-Dombrowsky, F. Armougom, Y. Blache, M. Molmeret, Microb. Ecol., 2014, 68, 94-110.

[4] = Gravimetry (weight loss), corrosion inhibition; settings: mild steel in 1N HCl
In short: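 Mild steel coupons (2.5×2.0×0.1 cm) immersed in non-de-aerated 1N HCl without or with various inhibitor concentrations, then washed, dried and reweighed; duplicate runs. IE (%) calculated from corrosion rates without (CR^o) and with (CR) inhibitor.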

[5] = test system: Pseudoalteromonas lipolytica (TC8); assay: Anti-adhesion test, strain TC8; assay type: cell-based; settings: Pseudoalteromonas lipolytica; for activity at 200 µM: 15 h, read-out: % of adhesion at 200 μM, TC8; for EC50: read-out: EC50 (effective concentration to inhibit 50% of the adhesion), TC8
In short: (§1)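 Stationary-phase bacteria grown in VNSS, diluted in artificial sea water and incubated about 15 h with compound at eight concentrations in triplicate, DMSO up to 2%. Adhered cells stained with SYTO 61 (1 μM). EC50 from a sigmoid fit of % inhibition against log concentration.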

[6] = test system: Pseudoalteromonas ulvae (TC14); assay: Anti-adhesion test, strain TC14; assay type: cell-based; settings: Pseudoalteromonas ulvae; for activity at 200 µM: 15 h; for EC50: read-out: EC50 (effective concentration to inhibit 50% of the adhesion)
In short: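 Stationary-phase TC14 cells grown in VNSS, diluted in artificial seawater and incubated with compound at eight concentrations in triplicate (DMSO ≤2%) for about 15 h. Non-adhered bacteria removed and adhered cells quantified by SYTO 61 (1 μM) staining. EC50 derived from sigmoid fit of % inhibition versus log concentration.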

[7] = test system: Pseudoalteromonas lipolytica (TC8); assay: microbe, parasite or virus in culture; settings: for CC50: Pseudoalteromonas lipolytica, read-out: LC50 (necessary concentration to kill 50% of the bacteria), TC8; for IS: LC50/EC50 (selectivity index), TC8: strain TC8
Source text: (§2) The anti-adhesion bioassays and toxicity tests are adapted from those disclosed in M. Camps, J.-F. Briand, L. Guentas-Dombrowsky, G. Culioli, A. Bazire and Y. Blache, Mar. Poll.
(§3) After growth on VNSS, bacterial strains were harvested during the exponential phase. The microtiter plates (sterile transparent PS; Nunc, Fisher Scientific) were filled as described in the Anti-adhesion test method using VNSS instead of ASW to allow bacterial growth. The growth was followed by measuring the turbidity (OD600 nm) every hour during 6 or 7 hours. Then, resazurin (50 μM) was added in all the wells, and fluorescence was measured after 2 h to quantify the percent of bacterial viability. The same methodology used with SYTO 61 was applied to calculate a percent of viability after resazurin staining.

[8] = test system: Paracoccus sp. (4M6); assay: microbe, parasite or virus in culture; settings: for CC50: Paracoccus, read-out: LC50 (necessary concentration to kill 50% of the bacteria), 4M6; for IS: LC50/EC50 (selectivity index), 4M6: strain 4M6
Source text: as §2, §3

[9] = test system: marine bacterial strains (TC14, TC8, 4M6, TC5 and TC11); assay: Toxicity test, summary over the strains; assay type: cell-based; settings: comparison with reference biocides
Source text: (§4) In examples 64 and 65, the following marine bacterial strains are used.

[10] = test system: marine bacterial strains (TC14, TC8, 4M6, TC5 and TC11); assay: Anti-adhesion test, summary over the strains; assay type: cell-based; settings: for EC50 compared with TBTO/ZINEB: comparison with reference biocides
Method: Bacterial strains were grown on Väätänen nine-salts solution (VNSS). When the stationary phase was reached, the bacterial suspension was centrifuged. Cells were then diluted in sterile artificial sea water (ASW) and introduced in microtiter plates (sterile black PS; Nunc, Fisher Scientific, France) with the tested compound (at eight concentrations in three replicates) in the presence of three controls: (i) non-specific staining control, (ii) adhesion control, and (iii) positive control. The maximum percentage of solvent (DMSO 2%) used to dilute the tested compound was also tested in triplicate as additional control. After incubation during an optimized adhesion time (moderately 15 h), non-adhered bacteria were eliminated and adhered cells were quantified after SYTO 61 (1 μM) staining. A percentage of inhibition was calculated per well. A sigmoid dose-response curve was obtained by plotting the percentage of inhibition as a function of the log of tested compound concentration, after mean (n=3) and standard deviation (SD) calculation per triplicate for each concentration. EC50 values were then calculated for each compound.
as §4

[11] = test system: Pseudoalteromonas ulvae (TC14); assay: Toxicity test, strain TC14; assay type: cell-based
Source text: Pseudoalteromonas ulvae (TC14) was isolated in June 2010 in the Military Harbor of Toulon (Mediterranean Sea, France) as described in F. Brian-Jaisson, A. Ortalo-Magné, L. Guentas-Dombrowsky, F. Armougom, Y. Blache, M. Molmeret, Microb. Ecol., 2014, 68, 94-110.

[12] = test system: Paracoccus sp. (4M6); assay: Anti-adhesion test, strain 4M6; assay type: cell-based; settings: Paracoccus; for activity at 200 µM: 15 h, read-out: % of adhesion at 200 μM, 4M6; for EC50: read-out: EC50 (effective concentration to inhibit 50% of the adhesion), 4M6
In short: as §1

[13] = test system: Shewanella sp. (TC11); assay: Anti-adhesion test, strain TC11; assay type: cell-based; settings: for activity at 200 µM: 15 h, strain TC11, read-out: % of adhesion at 200 μM, TC11; for EC50: read-out: EC50 (effective concentration to inhibit 50% of the adhesion), strain TC11
[14] = read-out: inhibition of the adhesion of at least four marine bacterial strains
[15] = read-out: inhibition of the adhesion of at least two marine bacterial strains

CN(C)CCCOc1c(Br)cc(CCn2cc(-c3ccc(-c4cn(CCc5cc(Br)c(OCCCN(C)C)c(Br)c5)nn4)cc3)nn2)cc1Br [SA34, 3-(4-(2-(4-(4-(1-(4-(3-(dimethylamino)propoxy)-3,5-dibromophenethyl)-1H-1,2,3-triazol-4-yl)phenyl)-1H-1,2,3-triazol-1-yl)ethyl)-2,6-dibromophenoxy)-N,N-dimethylpropan-1-amine]
IS: LC50/EC50 (selectivity index), TC5 [1]: 20.5 | CC50 [1]: 94.3 µM | activity at 200 µM [2]: 7.9 ± 7.3% | EC50 [2]: 4.6 ± 6.3 µM | IS: LC50/EC50 (selectivity index), TC11 [3]: 4.3 | LC50 (necessary concentration to kill 50% of the bacteria), TC11 [3]: 115.9 µM | IE % ([4]; 0.1 ppm): 52.40% | IE % ([4]; 0.3 ppm): 70.39% | IE % ([4]; 0.5 ppm): 92.23% | IE % ([4]; 2 ppm): 96.25% | IE % ([4]; 10 ppm): 95.69% | activity at 200 µM [5]: 10.2 ± 3.1% | EC50 [5]: 50.5 ± 10.9 µM | activity at 200 µM [6]: 13 ± 7.7% | EC50 [6]: 13.1 ± 1 µM | CC50 [7]: 174 µM | IS: LC50/EC50 (selectivity index), TC8 [7]: 3.5 | CC50 [8]: 114 µM | IS: LC50/EC50 (selectivity index), 4M6 [8]: 75.7 | toxicity by LC50 values compared with TBTO/ZINEB [9]: less toxic than ZINEB | EC50 compared with TBTO/ZINEB [10]: comparable to that of ZINEB | inhibition at 200 µM [10, 14]: ≥ 85% | inhibition at 200 µM [10, 15]: ≥ 65% | IS: LC50/EC50 (selectivity index), TC14 [11]: 10.1 | LC50 (necessary concentration to kill 50% of the bacteria), TC14 [11]: 132 µM | activity at 200 µM [12]: 8.2 ± 3.5% | EC50 [12]: 1.5 ± 2.1 µM | activity at 200 µM [13]: 7 ± 3.12% | EC50 [13]: 27.2 ± 0.5 µM

CN(C)CCOc1c(Br)cc(CCn2cc(-c3ccc(-c4cn(CCc5cc(Br)c(OCCN(C)C)c(Br)c5)nn4)cc3)nn2)cc1Br [SA33, 2-(4-(2-(4-(4-(1-(4-(2-(dimethylamino)ethoxy)-3,5-dibromophenethyl)-1H-1,2,3-triazol-4-yl)phenyl)-1H-1,2,3-triazol-1-yl)ethyl)-2,6-dibromophenoxy)-N,N-dimethylethanamine]
IS: LC50/EC50 (selectivity index), TC5 [1]: 4.8 | CC50 [1]: 92.6 µM | activity at 200 µM [2]: 0.7 ± 0.7% | EC50 [2]: 19.2 ± 2.1 µM | IS: LC50/EC50 (selectivity index), TC11 [3]: 4.2 | LC50 (necessary concentration to kill 50% of the bacteria), TC11 [3]: 134.8 µM | IE % ([4]; 0.1 ppm): 87.08% | IE % ([4]; 0.3 ppm): 95.37% | IE % ([4]; 0.5 ppm): 95.89% | IE % ([4]; 2 ppm): 96.25% | IE % ([4]; 10 ppm): 96.03% | activity at 200 µM [5]: 6.8 ± 4.3% | EC50 [5]: 42.5 ± 16.9 µM | activity at 200 µM [6]: 6.3 ± 1.3% | EC50 [6]: 20.4 ± 1.2 µM | CC50 [7]: 199 µM | IS: LC50/EC50 (selectivity index), TC8 [7]: 4.7 | CC50 [8]: 126 µM | IS: LC50/EC50 (selectivity index), 4M6 [8]: 11.2 | toxicity by LC50 values compared with TBTO/ZINEB [9]: less toxic than ZINEB | EC50 compared with TBTO/ZINEB [10]: comparable to that of ZINEB | inhibition at 200 µM [10, 14]: ≥ 85% | inhibition at 200 µM [10, 15]: ≥ 65% | IS: LC50/EC50 (selectivity index), TC14 [11]: 12.45 | LC50 (necessary concentration to kill 50% of the bacteria), TC14 [11]: 254.1 µM | activity at 200 µM [12]: 7.4 ± 8.3% | EC50 [12]: 11.3 ± 9.1 µM | activity at 200 µM [13]: 4.4 ± 2.7% | EC50 [13]: 32 ± 8.1 µM
